Here are results for 22 compounds from patent US8394952B2 (Vertex Pharmaceuticals Incorporated, priority 2006, dated 2013).

In the first data set the target is T1, Plk1 (Homo sapiens, UniProt P53350). The experiment in a line: biochemical.
T1 sequence (P53350 20-338): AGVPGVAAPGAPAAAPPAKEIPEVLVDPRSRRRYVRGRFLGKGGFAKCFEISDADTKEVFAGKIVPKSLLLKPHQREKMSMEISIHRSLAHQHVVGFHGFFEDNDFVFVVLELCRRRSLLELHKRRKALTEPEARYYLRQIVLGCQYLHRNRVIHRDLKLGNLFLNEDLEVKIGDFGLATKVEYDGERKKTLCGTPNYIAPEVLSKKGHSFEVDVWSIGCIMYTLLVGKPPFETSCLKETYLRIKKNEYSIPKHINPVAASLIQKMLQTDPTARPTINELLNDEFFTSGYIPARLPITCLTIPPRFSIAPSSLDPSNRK
Conditions: not given
What is called Ki is the dissociation constant of the complex between target and ligand, obtained from inhibition or displacement. The low end stands for a stronger hold on the target, the high end for a looser hold on the target. Take `COc1cc(C(=O)N[C@@H]2CC[C@@H](CO)C2)ccc1Nc1ncc2c(n1)N(C1CCCC1)CC(C)(C)C(=O)N2C` [Compound I-260, 4-(9-cyclopentyl-5,7,7-trimethyl-6-oxo-6,7,8,9-tetrahydro-5H-pyrimido[4,5-b][1,4]diazepin-2-ylamino)-N-((1R,3R)-3-(hydroxymethyl)cyclopentyl)-3-methoxybenzamide]: the Ki is less than 10 nM.
Still for that read-out and setting: as for `COc1ccc(NC(=O)c2ccc(Nc3ncc4c(n3)N(C3CCCC3)CC(C)(C)C(=O)N4C)c(OC)c2)cc1` [Compound I-261, 4-(9-cyclopentyl-5,7,7-trimethyl-6-oxo-6,7,8,9-tetrahydro-5H-pyrimido[4,5-b][1,4]diazepin-2-ylamino)-3-methoxy-N-(4-methoxyphenyl)benzamide], the figure is less than 10 nM.
On the same count and under the same terms, as for `COc1cc(C(=O)NCCCO)ccc1Nc1ncc2c(n1)N(C1CCCC1)CC1(CC1)C(=O)N2C` [Compound I-262, 4-(9′-cyclopentyl-5′-methyl-6′-oxo-5′,6′,8′,9′-tetrahydrospiro[cyclopropane-1,7′-pyrimido[4,5-b][1,4]diazepine]-2′-ylamino)-N-(3-hydroxypropyl)-3-methoxybenzamide], the figure is less than 10 nM.
`COc1cc(C(=O)NC(C)C)ccc1Nc1ncc2c(n1)N(C1CCCC1)CC1(CC1)C(=O)N2C` [Compound I-263, 4-(9′-cyclopentyl-5′-methyl-6′-oxo-5′,6′,8′,9′-tetrahydrospiro[cyclopropane-1,7′-pyrimido[4,5-b][1,4]diazepine]-2′-ylamino)-N-isopropyl-3-methoxybenzamide] yielded a Ki of less than 10 nM.
The same measure, in the same setting: the figure for `COc1cc(C(=O)NCCO)ccc1Nc1ncc2c(n1)N(C1CCCC1)CC(C)(C)C(=O)N2C` [Compound I-264, 4-(9-cyclopentyl-5,7,7-trimethyl-6-oxo-6,7,8,9-tetrahydro-5H-pyrimido[4,5-b][1,4]diazepin-2-ylamino)-N-(2-hydroxyethyl)-3-methoxybenzamide] is less than 10 nM.
`COc1cc(C(=O)N[C@@H](C)CO)ccc1Nc1ncc2c(n1)N(C1CCCC1)CC(C)(C)C(=O)N2C` [Compound I-265] came in with a Ki of less than 10 nM.
Consider `COc1cc(C(=O)NC2(CO)CC2)ccc1Nc1ncc2c(n1)N(C1CCCC1)CC(C)(C)C(=O)N2C` [Compound I-266], for which the Ki is less than 10 nM.
Take `COc1cc(C(=O)N[C@H]2CC[C@@H](F)CC2)ccc1Nc1ncc2c(n1)N(C1CCCC1)CC(C)(C)C(=O)N2C` [Compound I-267, 4-(9-cyclopentyl-5,7,7-trimethyl-6-oxo-6,7,8,9-tetrahydro-5H-pyrimido[4,5-b][1,4]diazepin-2-ylamino)-N-((1S,4S)-4-fluorocylohexyl)-3-methoxybenzamide]: the Ki is less than 10 nM.
For the compound `COc1cc(C(=O)N[C@@H]2CCCC[C@H]2O)ccc1Nc1ncc2c(n1)N(C1CCCC1)CC(C)(C)C(=O)N2C` [Compound I-268, 4-(9-cyclopentyl-5,7,7-trimethyl-6-oxo-6,7,8,9-tetrahydro-5H-pyrimido[4,5-b][1,4]diazepin-2-ylamino)-N-((1R,2R)-2-hydroxycyclohexyl)-3-methoxybenzamide], the Ki is less than 10 nM.
On the same count and under the same terms, as for `COc1cc(C(=O)NC2CC(F)(F)C2)ccc1Nc1ncc2c(n1)N(C1CCCC1)CC1(CC1)C(=O)N2C` [Compound I-269, 4-(9′-cyclopentyl-5′-methyl-6′-oxo-5′,6′,8′,9′-tetrahydrospiro[cyclopropane-1,7′-pyrimido[4,5-b][1,4]diazepine]-2′-ylamino)-N-(3,3-difluorocyclobutyl)-3-methoxybenzamide], the figure is less than 10 nM; as for `COc1cc(C(=O)NC[C@H](C)O)ccc1Nc1ncc2c(n1)N(C1CCCC1)CC(C)(C)C(=O)N2C` [Compound I-270, (S)-4-(9-cyclopentyl-5,7,7-trimethyl-6-oxo-6,7,8,9-tetrahydro-5H-pyrimido[4,5-b][1,4]diazepin-2-ylamino)-N-(2-hydroxypropyl)-3-methoxybenzamide], less than 10 nM.
In the case of `COc1cc(C(=O)NC(C)(C)CO)ccc1Nc1ncc2c(n1)N(C1CCCC1)CC1(CC1)C(=O)N2C` [Compound I-271, 4-(9′-cyclopentyl-5′-methyl-6′-oxo-5′,6′,8′,9′-tetrahydrospiro[cyclopropane-1,7′-pyrimido[4,5-b][1,4]diazepine]-2′-ylamino)-N-(1-hydroxy-2-methylpropan-2-yl)-3-methoxybenzamide], the Ki is less than 10 nM.
Still for that read-out and setting: as for `COc1cc(C(=O)N[C@@H]2CCC[C@H]2O)ccc1Nc1ncc2c(n1)N(C1CCCC1)CC1(CC1)C(=O)N2C` [Compound I-272, 4-(9′-cyclopentyl-5′-methyl-6′-oxo-5′,6′,8′,9′-tetrahydrospiro[cyclopropane-1,7′-pyrimido[4,5-b][1,4]diazepine]-2′-ylamino)-N-((1R,2R)-2-hydroxycyclopentyl)-3-methoxybenzamide], the figure is less than 10 nM; as for `COc1cc(C(=O)NCCCOC(C)=O)ccc1Nc1ncc2c(n1)N(C1CCCC1)CC(C)(C)C(=O)N2C` [Compound I-273, 3-(4-(9-cyclopentyl-5,7,7-trimethyl-6-oxo-6,7,8,9-tetrahydro-5H-pyrimido[4,5-b][1,4]diazepin-2-ylamino)-3-methoxybenzamido)propyl acetate], less than 10 nM; as for `COc1cc(C(=O)NCC(O)C(F)(F)F)ccc1Nc1ncc2c(n1)N(C1CCCC1)CC(C)(C)C(=O)N2C` (stereo not shown) [Compound I-278, 4-(9-cyclopentyl-5,7,7-trimethyl-6-oxo-6,7,8,9-tetrahydro-5H-pyrimido[4,5-b][1,4]diazepin-2-ylamino)-3-methoxy-N-(3,3,3-trifluoro-2-hydroxypropyl)benzamide], less than 10 nM.
The compound `COc1cc(C(=O)NCCF)ccc1Nc1ncc2c(n1)N(C1CCCC1)CC(C)(C)C(=O)N2C` [Compound I-279, 4-(9-cyclopentyl-5,7,7-trimethyl-6-oxo-6,7,8,9-tetrahydro-5H-pyrimido[4,5-b][1,4]diazepin-2-ylamino)-N-(2-fluoroethyl)-3-methoxybenzamide] displayed a Ki of less than 10 nM.
Regarding `COc1cc(C(=O)N[C@H]2CC[C@H](OC(C)=O)CC2)ccc1Nc1ncc2c(n1)N(C1CCCC1)CC(C)(C)C(=O)N2C` [Compound I-280, (1r,4r)-4-(4-(9-cyclopentyl-5,7,7-trimethyl-6-oxo-6,7,8,9-tetrahydro-5H-pyrimido[4,5-b][1,4]diazepin-2-ylamino)-3-methoxybenzamido)cyclohexyl acetate], the Ki was less than 10 nM.
On to `COc1cc(C(=O)N[C@@H]2CC[C@@H](O)C2)ccc1Nc1ncc2c(n1)N(C1CCCC1)CC1(CC1)C(=O)N2C` [Compound I-282, 4-(9′-cyclopentyl-5′-methyl-6′-oxo-5′,6′,8′,9′-tetrahydrospiro[cyclopropane-1,7′-pyrimido[4,5-b][1,4]diazepine]-2′-ylamino)-N-((1R,3R)-3-hydroxycyclopentyl)-3-methoxybenzamide], for which the Ki is less than 10 nM.

The next data set concerns the target T1, Plk1. The experiment in a line: Plk1 inhibition assay (radioactive-phosphate incorporation). Conditions: Plk1 radioactive incorporation assay conditions.
Turning to `CNC(=O)c1ccc(Nc2ncc3c(n2)N(C2CCCC2)CC(C)(C)C(=O)N3C)nc1` [Compound I-126, 6-(9-cyclopentyl-6,7,8,9-tetrahydro-5,7,7-trimethyl-6-oxo-5H-pyrimido[4,5-b][1,4]diazepin-2-ylamino)-N-methylpyridine-3-carboxamide], the “solubility under the Plk1 assay conditions” value is reported as “not soluble under the assay conditions”.
As to `CNC(=O)c1ccc(Nc2ncc3c(n2)N(C2CCCC2)CC(C)(C)C(=O)N3C)c(OC(F)(F)F)c1` [Compound I-142, 4-(9-Cyclopentyl-6,7,8,9-tetrahydro-5,7,7-trimethyl-6-oxo-5H-pyrimido[4,5-b][1,4]diazepin-2-ylamino)-N-methyl-3-(trifluoromethoxy)benzamide], the “solubility under the Plk1 assay conditions” value was “not soluble under the assay conditions”.

Still in this data set, the particulars now being: test compound typically starting from 10 μM.
Consider `CCOC(=O)N1CCC(Nc2ncc3c(n2)N(C2CCCC2)CCC(=O)N3C)CC1` [Compound I-13, Ethyl 4-(9-cyclopentyl-6,7,8,9-tetrahydro-5-methyl-6-oxo-5H-pyrimido[4,5-b][1,4]diazepin-2-ylamino)piperidin-1-carboxylate], for which the “activity in the Plk1 radioactive incorporation assay (in words)” value is “not active within the limits of the assay”.
With `COc1cc(C(=O)O)ccc1Oc1ncc2c(n1)N(C1CCCC1)CC(C)(C)C(=O)N2C` [Compound I-107, 4-(9-cyclopentyl-6,7,8,9-tetrahydro-5,7,7-trimethyl-6-oxo-5H-pyrimido[4,5-b][1,4]diazepin-2-yloxy)-3-methoxybenzoic acid], the “activity in the Plk1 radioactive incorporation assay (in words)” value was “not active within the limits of the assay”.
